According to US6683079B2, “3-(amino-or aminoalkyl) pyridinone derivatives and their use for the treatment of HIV related diseases” (Centre National de la Recherche Scientifique, priority 1998, dated 2004):

System: HIV-1 strain IIIB
Assay: Retrovirucidal effect on HIV-1 strain IIIB (Table 3)
Type: cell-based
Protocol: HIV-1 viral suspensions were obtained by coculture of MT4 cells and H9 cells chronically infected by HIV-ILai isolate. 200 μl of a cell supernatant containing viral particles (HIV-ILai: 100 TCID50) were incubated at room temperature with various concentrations of different inhibitors. After 3 hours, virions were washed through 0.02 μm anopore membrane in 1.5 mL Vectaspin tube (Whatman) for 10 minutes at 5 000 g. Each of the three subsequent washes was performed in the same conditions after the viral concentrate was refilled with 500 μL of RPMI medium. Then, the viral concentrate was readjusted to the initial volume with RPMI plus 10% foetal calf serum (FCS). The residual infectivity was assayed on P4 cells as described by CHARNEAU et al. (1994, J. Mol. Biol., 241, 651-662). Briefly, P4 cells were plated using 100 μL of DMEM medium plus 10% FCS in 96 plate multi-wells at 20×10^5 cells per mL. After overnight incubation at 37° C., the supernatant was discarded and the viral preparation (200 μL) was added. One day later the wells were washed three times in PBS. Each well was refilled with 200 μL of a reaction buffer containing 50 mM Tris-HCl pH 8.5, 100 mM 2-mercaptoethanol, 0.05% Triton X-100 and 5 mM 4-methylumbelliferyl β-D-galactopyranoside (MUG). After 3 hours at 37° C., the level of the reaction was measured in a fluorescence microplate reader.
The retrovirucidal effect of each pyridinone derivative listed in table 3 has been assayed according to the teachings of example 2, excepted that the anti-viral effect has been tested on the two following HIV-1 strains:
a) HIV-1 strain IIIB (see example 2);

[1] = retrovirucidal effect, pIC50=-log IC50 (M)

## CCc1c(C)[nH]c(=O)c(N(C)C)c1C(=O)c1cccc(COc2ccccc2)c1 [Compound 143]
pIC50=-log IC50, IC50 in M
  HIV1 pIC50 strain IIIB: 7.421

## Cc1cc(C)cc(Cc2c(Cl)c[nH]c(=O)c2N)c1 [Compound 105]
pIC50=-log IC50, IC50 in M
  HIV1 pIC50 strain IIIB: 4.943

## CCc1c(C)[nH]c(=O)c(N(C)C)c1C(=O)Cc1cccc(C)c1 [Compound 127]
pIC50=-log IC50, IC50 in M
  HIV1 pIC50 strain IIIB: 4.174

## CCc1c(C)[nH]c(=O)c(N(CC)CC)c1C(=O)c1cccc(C)c1 [Compound 95]
pIC50=-log IC50, IC50 in M
  HIV1 pIC50 strain IIIB: 8.268

## CCCCc1cc(Cc2cc(C)cc(C)c2)c(N)c(=O)[nH]1 [Compound 89]
pIC50=-log IC50, IC50 in M
  HIV1 pIC50 strain IIIB: 6.237

## CCc1c(C)[nH]c(=O)c(N)c1Sc1cccc(C)c1 [Compound 159]
pIC50=-log IC50, IC50 in M
  HIV1 pIC50 strain IIIB: 7.011

## CCc1c(C)[nH]c(=O)c(N(C)CCC(C)C)c1Cc1cccc(C)c1 [Compound 155]
pIC50=-log IC50, IC50 in M
  HIV1 pIC50 strain IIIB: 7.514

## CCCCc1cc(Cc2cc(C)cc(C)c2)c(N(C)C)c(=O)[nH]1 [Compound 90]
pIC50=-log IC50, IC50 in M
  HIV1 pIC50 strain IIIB: 6.359

## CCc1c(C)[nH]c(=O)c(N(C)C)c1Cc1ccc2c(c1)OCCO2 [Compound 135]
pIC50=-log IC50, IC50 in M
  HIV1 pIC50 strain IIIB: 6.688

## CCc1c(C)[nH]c(=O)c(N)c1Oc1cc(C)cc(C)c1 [Compound 197]
[1]
  HIV1 pIC50 strain IIIB: 7.307

## CCc1c(C)[nH]c(=O)c(N(C)C)c1Cc1ccc(Cl)cc1 [Compound 55]
pIC50=-log IC50, IC50 in M
  HIV1 pIC50 strain IIIB: 6.651

## CCc1c(C)[nH]c(=O)c(N)c1Cc1ccc(OC)c(C)c1 [Compound 156]
pIC50=-log IC50, IC50 in M
  HIV1 pIC50 strain IIIB: 4.934

## CCc1c(C)[nH]c(=O)c(N)c1C(=O)c1ccc(Br)s1 [Compound 194]
pIC50=-log IC50, IC50 in M
  HIV1 pIC50 strain IIIB: 4.665

## Cc1cccc(Cc2c3c([nH]c(=O)c2N)CCCC3)c1 [Compound 91]
pIC50=-log IC50, IC50 in M
  HIV1 pIC50 strain IIIB: 5.73

## CCc1c(C)[nH]c(=O)c(N(CCOC)CCOC)c1Cc1cccc(C)c1 [Compound 180]
pIC50=-log IC50, IC50 in M
  HIV1 pIC50 strain IIIB: 5.988

## CCc1c(C)[nH]c(=O)c(N)c1C(=O)c1cc(F)cc(C(F)(F)F)c1 [Compound 182]
pIC50=-log IC50, IC50 in M
  HIV1 pIC50 strain IIIB: 5.933

## CCc1c(C)[nH]c(=O)c(N)c1Cc1ccc2c(c1)OCCO2 [Compound 134]
pIC50=-log IC50, IC50 in M
  HIV1 pIC50 strain IIIB: 4.056

## CCc1c(C)[nH]c(=O)c(N)c1C(=O)c1cccc(C(F)(F)F)c1 [Compound 140]
pIC50=-log IC50, IC50 in M
  HIV1 pIC50 strain IIIB: 5.766

## CCc1c(C)[nH]c(=O)c(N(C)C)c1Cc1cccc2ccccc12 [Compound 116]
pIC50=-log IC50, IC50 in M
  HIV1 pIC50 strain IIIB: 6.627

## Cc1cccc(C(=O)c2c(C)c(C)[nH]c(=O)c2N)c1 [Compound 94]
pIC50=-log IC50, IC50 in M
  HIV1 pIC50 strain IIIB: 5.153

## CCc1c(C)[nH]c(=O)c(N(C)C)c1Cc1ccc(OC)c(C)c1 [Compound 157]
pIC50=-log IC50, IC50 in M
  HIV1 pIC50 strain IIIB: 6.413

## Cc1c[nH]c(=O)c(N)c1SCc1ccccc1 [Compound 198]
[1]
  HIV1 pIC50 strain IIIB: 4.457

## CCc1c(C)[nH]c(=O)c(N)c1C(=O)Cc1cccc(C)c1 [Compound 124]
pIC50=-log IC50, IC50 in M
  HIV1 pIC50 strain IIIB: 4.389

## CCc1c(C)[nH]c(=S)c(N(C)C)c1Cc1cc(C)cc(C)c1 [Compound 137]
pIC50=-log IC50, IC50 in M
  HIV1 pIC50 strain IIIB: 7.658

## CCc1c(C)[nH]c(=O)c(N(C)C)c1C(=O)c1cccc(-c2ccccc2)c1 [Compound 196]
pIC50=-log IC50, IC50 in M
  HIV1 pIC50 strain IIIB: 6.411

## CCc1c(C)[nH]c(=O)c(N)c1C(=O)c1ccc2c(c1)OCO2 [Compound 150]
pIC50=-log IC50, IC50 in M
  HIV1 pIC50 strain IIIB: 4.881

## CCc1c(C)[nH]c(=O)c(N(C)C)c1Cc1ccc2c(c1)OCO2 [Compound 147]
pIC50=-log IC50, IC50 in M
  HIV1 pIC50 strain IIIB: 7.721

## CCc1c(Cc2cc(C)cc(C)c2)c(N(C)C)c(=O)n(-c2ccccc2)c1C [Compound 152]
pIC50=-log IC50, IC50 in M
  HIV1 pIC50 strain IIIB: 4.21

## CCc1c(C)[nH]c(=O)c(N)c1C(=O)c1cc(Br)cs1 [Compound 186]
pIC50=-log IC50, IC50 in M
  HIV1 pIC50 strain IIIB: 5.781

## CCc1c(C)[nH]c(=O)c(N)c1C(=O)c1cc(Cl)cc(Cl)c1 [Compound 190]
pIC50=-log IC50, IC50 in M
  HIV1 pIC50 strain IIIB: 7.757

## CCc1c(C)[nH]c(=O)c(N)c1Cc1ccccc1Br [Compound 202]
[1]
  HIV1 pIC50 strain IIIB: 5.715

## CCc1c(C)[nH]c(=O)c(N(C)C)c1C(=O)c1ccc2c(c1)OCO2 [Compound 151]
pIC50=-log IC50, IC50 in M
  HIV1 pIC50 strain IIIB: 7.845

## CCc1c(C)[nH]c(=O)c(N(C)C)c1C(=O)c1ccc2c(c1)OCCO2 [Compound 112]
pIC50=-log IC50, IC50 in M
  HIV1 pIC50 strain IIIB: 6.394

## CCCc1cccc(Cc2c(CC)c(C)[nH]c(=O)c2N)c1 [Compound 103]
pIC50=-log IC50, IC50 in M
  HIV1 pIC50 strain IIIB: 5.747

## CCc1c(C)[nH]c(=O)c(N(C)C)c1Cc1nccn1C [Compound 88]
pIC50=-log IC50, IC50 in M
  HIV1 pIC50 strain IIIB: <4

## Cc1cccc(C(=O)c2c3c([nH]c(=O)c2N)CCC3)c1 [Compound 142]
pIC50=-log IC50, IC50 in M
  HIV1 pIC50 strain IIIB: 4.889

## CCc1c(C)[nH]c(=O)c(N)c1Cc1cccc(OC)c1 [Compound 120]
pIC50=-log IC50, IC50 in M
  HIV1 pIC50 strain IIIB: 5.033

## CCc1c(C)[nH]c(=O)c(N(C)C)c1C(=O)c1cc(F)cc(C(F)(F)F)c1 [Compound 183]
pIC50=-log IC50, IC50 in M
  HIV1 pIC50 strain IIIB: 8.481

## CCc1c(C)[nH]c(=O)c(N(C)C)c1C(=O)c1cccc(C)c1 [Compound 93]
pIC50=-log IC50, IC50 in M
  HIV1 pIC50 strain IIIB: 8.721

## CCOc1cccc(Cc2c(CC)c(C)[nH]c(=O)c2N(C)C)c1 [Compound 181]
pIC50=-log IC50, IC50 in M
  HIV1 pIC50 strain IIIB: 7.928

## CCc1c(C)[nH]c(=O)c(NC)c1Cc1cccc(C(F)(F)F)c1 [Compound 139]
pIC50=-log IC50, IC50 in M
  HIV1 pIC50 strain IIIB: 6.908

## CCc1c(C)[nH]c(=O)c(N)c1Cc1cccc2ccccc12 [Compound 113]
pIC50=-log IC50, IC50 in M
  HIV1 pIC50 strain IIIB: 5.273

## CCc1c(C)[nH]c(=O)c(N(C)C)c1Cc1ccccc1Br [Compound 203]
[1]
  HIV1 pIC50 strain IIIB: 8.161

## Cc1cc(C)cc(Cc2c(C)c(C(C)C)[nH]c(=O)c2N)c1 [Compound 118]
pIC50=-log IC50, IC50 in M
  HIV1 pIC50 strain IIIB: 4.042

## CCc1c(C)[nH]c(=O)c(N(C)C)c1Cc1cccc(O)c1 [Compound 122]
pIC50=-log IC50, IC50 in M
  HIV1 pIC50 strain IIIB: 7.196

## CCc1c(C)[nH]c(=O)c(N(C)C)c1Cc1cccc(CO)c1 [Compound 110]
pIC50=-log IC50, IC50 in M
  HIV1 pIC50 strain IIIB: 7.783

## Cc1cc(C)cc(Cc2c(C)c(C(C)C)[nH]c(=O)c2N(C)C)c1 [Compound 119]
pIC50=-log IC50, IC50 in M
  HIV1 pIC50 strain IIIB: 6.114

## Cc1cc(C)cc(Cc2c(Cl)c[nH]c(=O)c2N(C)C)c1 [Compound 106]
pIC50=-log IC50, IC50 in M
  HIV1 pIC50 strain IIIB: 7.063

## CCc1[nH]c(=O)c(N(C)C)c(C(=O)c2cccc(C)c2)c1C [Compound 108]
pIC50=-log IC50, IC50 in M
  HIV1 pIC50 strain IIIB: 7.005

## CCc1c(C)[nH]c(=O)c(N)c1C(=O)c1ccc2c(c1)OCCO2 [Compound 111]
pIC50=-log IC50, IC50 in M
  HIV1 pIC50 strain IIIB: <4

## Cc1cccc(Cc2c3c([nH]c(=O)c2N)CCC3)c1 [Compound 131]
pIC50=-log IC50, IC50 in M
  HIV1 pIC50 strain IIIB: 5.799

## CCc1c(C)[nH]c(=O)c(N)c1Sc1cccc(Br)c1 [Compound 188]
pIC50=-log IC50, IC50 in M
  HIV1 pIC50 strain IIIB: 7.063

## Cc1cccc(Cc2c3c([nH]c(=O)c2N(C)C)CCCC3)c1 [Compound 92]
pIC50=-log IC50, IC50 in M
  HIV1 pIC50 strain IIIB: 7.807

## Cc1cccc(Cc2c3c([nH]c(=O)c2N(C)C)CCC3)c1 [Compound 132]
pIC50=-log IC50, IC50 in M
  HIV1 pIC50 strain IIIB: 7.863

## CCc1c(C)[nH]c(=O)c(N(C)CCOCc2ccccc2)c1Cc1cccc(C)c1 [Compound 144]
pIC50=-log IC50, IC50 in M
  HIV1 pIC50 strain IIIB: 6.446

## CCc1c(C)[nH]c(=O)c(N(C)C)c1CN(C)c1cc(C)cc(C)c1 [Compound 133]
pIC50=-log IC50, IC50 in M
  HIV1 pIC50 strain IIIB: 4.94

## CCc1c(C)[nH]c(=O)c(N(C)C)c1C(=O)c1cccc(CO)c1 [Compound 128]
pIC50=-log IC50, IC50 in M
  HIV1 pIC50 strain IIIB: 7.848

## CCc1c(C)[nH]c(=O)c(N)c1Cc1ccc2c(c1)OCO2 [Compound 141]
pIC50=-log IC50, IC50 in M
  HIV1 pIC50 strain IIIB: 4.642

## Cc1cccc(C(=O)c2c3c([nH]c(=O)c2N(C)C)CCC3)c1 [Compound 148]
pIC50=-log IC50, IC50 in M
  HIV1 pIC50 strain IIIB: 7.863

## CCc1c(C)[nH]c(=O)c(N)c1Cc1cc(Cl)cc(Cl)c1 [Compound 189]
pIC50=-log IC50, IC50 in M
  HIV1 pIC50 strain IIIB: 6.401

## CCc1c(Cc2cc(C)cc(C)c2)c(N(C)C)c(=O)n(N)c1C [Compound 153]
pIC50=-log IC50, IC50 in M
  HIV1 pIC50 strain IIIB: 6.749
